Data reported in ChEMBL document CHEMBL1127353, “Nonpeptidic inhibitors of human leukocyte elastase. 2. Design, synthesis, and in vitro activity of a series of 3-amino-6-arylopyridin-2-one trifluoromethyl ketones” (J Med Chem, 1994).

target: T1, Neutrophil elastase (Homo sapiens, UniProt P08246); assay: Tested for inhibitory activity against human leukocyte elastase(HLE) enzyme
T1 sequence (P08246 whole entry): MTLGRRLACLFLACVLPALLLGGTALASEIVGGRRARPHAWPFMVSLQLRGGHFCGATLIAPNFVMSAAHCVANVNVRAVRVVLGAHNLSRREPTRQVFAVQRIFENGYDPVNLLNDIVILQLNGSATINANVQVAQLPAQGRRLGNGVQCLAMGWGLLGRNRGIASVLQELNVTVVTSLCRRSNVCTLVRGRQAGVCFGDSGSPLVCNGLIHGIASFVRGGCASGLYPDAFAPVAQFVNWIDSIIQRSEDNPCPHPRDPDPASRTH

SMILES	Ki
CC(C)C(NC(=O)Cn1c(Cc2ccccc2)ccc(NC(=O)OCc2ccccc2)c1=O)C(=O)C(F)(F)F (stereo not drawn)	66 nM
CC(C)C(NC(=O)Cn1c(-c2cccc(C(=O)O)c2)ccc(NC(=O)OCc2ccccc2)c1=O)C(=O)C(F)(F)F (stereo not drawn)	32 nM
CC(C)C(NC(=O)Cn1c(-c2cccnc2)ccc(NC(=O)OCc2ccccc2)c1=O)C(=O)C(F)(F)F (stereo not drawn)	9.1 nM
CC(C)C(NC(=O)Cn1c(-c2ccccc2Cl)ccc(NC(=O)OCc2ccccc2)c1=O)C(=O)C(F)(F)F (stereo not drawn)	11 nM

Continued, values first:

Ki	SMILES
4.4 nM	CC(C)C(NC(=O)Cn1c(-c2cccc(OC(C)(C)C)c2)ccc(NC(=O)OCc2ccccc2)c1=O)C(=O)C(F)(F)F (stereo not drawn)
6.6 nM	CC(C)C(NC(=O)Cn1c(-c2ccc(Cl)cc2)ccc(NC(=O)OCc2ccccc2)c1=O)C(=O)C(F)(F)F (stereo not drawn)
320 nM	CC(C)C(NC(=O)Cn1ccc(-c2ccccc2)c(NC(=O)OCc2ccccc2)c1=O)C(=O)C(F)(F)F (stereo not drawn)
31 nM	Cc1ccc(-c2ccc(NC(=O)OCc3ccccc3)c(=O)n2CC(=O)NC(C(=O)C(F)(F)F)C(C)C)cc1 (stereo not drawn)
